Assay results reported in US8791155B2, “Chroman derivatives” (Edison Pharmaceuticals, Inc., priority 2003, dated 2014).

Experiments:
[1] = biological target: T1, human recombinant 5-lipoxygenase (Homo sapiens, UniProt P09917); experiment: 5-Lipoxygenase enzyme assay; format: biochemical; conditions: 70 μM arachidonic acid, pH 7.4, 10 minute incubation; read-out: IC50, inhibition of 5-Lipoxygenase
T1 construct: purchased Cayman 60402
T1 sequence (P09917 1-674): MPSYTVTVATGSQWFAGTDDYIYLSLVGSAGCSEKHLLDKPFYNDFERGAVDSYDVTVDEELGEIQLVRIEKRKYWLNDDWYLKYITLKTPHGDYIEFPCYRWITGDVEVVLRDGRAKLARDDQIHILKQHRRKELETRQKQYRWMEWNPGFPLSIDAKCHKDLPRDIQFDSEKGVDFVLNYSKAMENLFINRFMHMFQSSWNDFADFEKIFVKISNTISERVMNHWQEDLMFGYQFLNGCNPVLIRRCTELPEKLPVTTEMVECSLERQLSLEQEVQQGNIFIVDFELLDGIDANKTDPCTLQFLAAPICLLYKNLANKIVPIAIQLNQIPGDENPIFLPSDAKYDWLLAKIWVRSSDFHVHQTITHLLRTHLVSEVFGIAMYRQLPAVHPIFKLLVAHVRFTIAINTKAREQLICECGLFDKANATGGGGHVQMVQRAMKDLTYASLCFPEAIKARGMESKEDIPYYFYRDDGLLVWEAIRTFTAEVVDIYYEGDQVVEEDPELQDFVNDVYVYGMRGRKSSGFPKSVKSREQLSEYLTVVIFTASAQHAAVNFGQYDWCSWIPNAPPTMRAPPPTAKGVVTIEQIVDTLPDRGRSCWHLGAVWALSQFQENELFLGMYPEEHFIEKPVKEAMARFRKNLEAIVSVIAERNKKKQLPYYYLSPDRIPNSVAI
Text: (§1) In vitro evaluation of the ability of a composition to inhibit the enzymes 5-lipoxygenase, 15-lipoxygenase, or 12/15 lipoxygenase as described in Walidge, N. B. et al Anal. Biochem., 231: 354-358 (1995) using a high throughput colorimetric method; as well as in vitro evaluation of inhibiting LTB4 is described in Examples.
This procedure was used for measuring the enzymatic activity of human recombinant 5-lipoxygenase using a colorimetric method based on the ferric oxidation of xylenol orange.
(§2) • 96 well flat bottom microfilter plates (VWR, Catalog #62402-933 9295) • Lipoxygenase screening assay buffer (Cayman, Catalog #760710) • Human recombinant 5-lipoxygenase (Cayman, Catalog #60402) • Arachidonic Acid (Sigma, Catalog #A3555) • Xylenol orange tetrasodium salt (Aldrich, Catalog #227854) • Iron (II) sulfate heptahydrate (Sigma, Catalog #F7002) • Sulfuric acid (95-98%) [18M]—Methanol Procedure
(§3) Human recombinant 5-lipoxygenase (Cayman Cat #60402) was used in this assay. The test compound and/or vehicle was added to 0.51-1 5-lipoxygenase in 50 mM Tris-HCl buffer, pH 7.4. The reaction was initiated by addition of 70 μM arachidonic acid in Tris-HCl buffer, pH 7.4, and terminated after a 10 minute incubation at room temperature by addition of FOX reagent (25 mM sulphuric acid, 100 μM xylenol orange, 100 μM iron (II) sulphate, methanol:water 9:1). The yellow color of acidified xylenol orange was converted to a blue color by the lipid hydroperoxide-mediated oxidation of Fe 2+ ions and the interaction of the resulting Fe 3+ ions with the dye. The complex was allowed to form during a 1 hour incubation at room temperature with shaking. Absorbance of the Fe 3+ complex was then measured at […] using a spectrophotometer.
(§4) Negative controls contained enzyme during the incubation step but substrate was not added until after the FOX reagent.
Compounds were screened at 5 concentrations in triplicate starting at 10 μM

[2] = biological target: T2, porcine leukocyte 12/15-lipoxygenase (Sus scrofa, UniProt P16469); experiment: 12/15-Lipoxygenase enzyme assay; format: biochemical; conditions: 70 μM arachidonic acid, pH 7.4, 10 minute incubation; read-out: IC50, inhibition of 12/15-Lipoxygenase
T2 construct: purchased Cayman 60300
T2 sequence (P16469 1-663): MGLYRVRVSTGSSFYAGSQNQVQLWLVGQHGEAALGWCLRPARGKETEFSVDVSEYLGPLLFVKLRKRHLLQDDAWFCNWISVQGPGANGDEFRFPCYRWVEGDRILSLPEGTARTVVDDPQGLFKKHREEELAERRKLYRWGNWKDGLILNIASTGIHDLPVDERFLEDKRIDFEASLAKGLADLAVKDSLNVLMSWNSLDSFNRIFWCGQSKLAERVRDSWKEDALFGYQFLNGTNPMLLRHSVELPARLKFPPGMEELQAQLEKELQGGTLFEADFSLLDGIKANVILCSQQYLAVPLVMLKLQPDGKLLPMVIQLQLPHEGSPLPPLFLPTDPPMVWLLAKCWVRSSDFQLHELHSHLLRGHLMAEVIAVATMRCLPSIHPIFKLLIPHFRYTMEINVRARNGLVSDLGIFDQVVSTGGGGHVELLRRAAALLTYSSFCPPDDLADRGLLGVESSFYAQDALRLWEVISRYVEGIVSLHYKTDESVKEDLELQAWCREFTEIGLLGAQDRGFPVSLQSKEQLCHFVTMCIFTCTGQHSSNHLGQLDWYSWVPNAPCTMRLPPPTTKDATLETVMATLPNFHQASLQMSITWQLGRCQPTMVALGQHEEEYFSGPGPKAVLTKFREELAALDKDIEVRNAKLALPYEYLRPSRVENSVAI
Text: as §1
This procedure was used for measuring the enzymatic activity of porcine leukocyte 12/15-lipoxygenase using a colorimetric method based on the ferric oxidation of xylenol orange.
as §2, with “Porcine leukocyte 12/15-lipoxygenase” for “Human recombinant 5-lipoxygenase”, “#60300)” for “#60402)”, “[18M] • Methanol” for “[18M]—Methanol”
as §3, with “Porcine Leukocyte 12/15-lipoxygenase” for “Human recombinant 5-lipoxygenase”, “#60300)” for “#60402)”, “Test” for “The test”, “1.3 U 12/15-lipoxygenase” for “0.51-1 5-lipoxygenase”
as §4
Compounds are screened at 5 concentrations in triplicate starting at 10 μM

[3] = tested on: release of the leukotriene LTB4 from MPRO cell line; experiment: LTB4 assay (competitive ELISA); format: cell-based; conditions: Mus musculus; 1 μM calcium ionophore A23187, 1 hour; read-out: EC50, inhibition of LTB4 production
Text: This procedure was used for measuring the release of the leukotriene LTB4 from a neutrophil cell line using a competitive ELISA technique.
• MPRO cell line (ATCC, Catalog #CRL-11422) • Calciumionophore (A23187) (Sigma, Catalog #C7522) • Nordihydroguaiaretic acid (NDGA) (BioMol, Catalog #E1101-0001) • Retinoic Acid (all-trans) (ATRA) (Sigma, Catalog #95152) • Sterile, tissue-culture treated 96-well plates (Corning, Catalog #3614) Materials for LTB4 ELISA • Precoated (Mouse Anti-Rabbit IgG) EIA 96 Well Strip Plates (Cayman, Catalog #400004) • Leukotriene B4 AChE Tracer (Cayman Catalog #420110) • Leukotriene B4 EIA Antiserum (Cayman Catalog #420112) • Ellman's Reagent (Cayman Catalog #400050) • EIA Buffer Concentrate (10×) (Cayman Catalog #400060) • Wash Buffer Concentrate (400×) (Cayman Catalog #400062) • Plastic plate covers (Cayman Catalog #400012) Procedure
A mouse promyelocytic cell line (MPRO) was used in this assay. These cells are committed immature neutrophils that can be differentiated into mature neutrophils by treatment with 10 μM all-trans retinoic acid for 72 hours
Following 72 hours of differentiation, cells were stimulated with 1 μM of a calcium ionophore (A23187) in the presence or absence of test compound or vehicle for 1 hour at 370 C. After this time, supernatant was removed from the cells and the LTB4 levels were determined following manufacturer's instructions, using a Leukotriene B4 EIA kit from Cayman (Cat #520111)
The negative controls were media samples from differentiated but unstimulated cells.
The compounds were screened at 5 concentrations in quadruplicate starting at 10 μM

[4] = tested on: dopaminergic neuronal cell line; experiment: High glutamate-induced oxidative stress assay (HGOS); format: cell-based; conditions: Mus musculus; 30 mM glutamate, 16 hrs; read-out: EC50, protection against HGOS cell injury and cell death
Text: Protection against redox stress can be evaluated in cell culture using high glutamate induced oxidative stress (HGOS) in mouse dopaminergic cell lines. The cytotoxic effect of glutamate is not due to excitotoxicity, as this cell line is devoid of inotropic glutamate receptors. Rather, the glutamate-induced toxicity of dopaminergic cells is associated with an inhibition of cystine transport which subsequently leads to depletion of intracellular glutathione (GSH) levels (Murphy T. H., et al. Neuron 2, 1547-1558, 1989), activation of neuronal 12-lipoxygenase (Li, Y. et al., Neuron 19, 453-463, 1997), increased ROS production (Tan S. et al., J. Cell Biol. 141, 1423-1432, 1998) and elevated intracellular Cat^2+ (Li, Y. et al., see supra). Some molecules were measured for their ability to protect cells against glutamate-induced stress and the assay is detailed in Examples.
This procedure was used to induce high glutamate-induced oxidative stress (HGOS) in a dopaminergic neuronal cell line. Using this assay the potency and efficacy of test articles against HGOS neuronal cell injury and cell death was established in a high throughput manner.
• Dopaminergic neuronal cell lines • DMEM-No Glucose (Life Technologies Cat #11966-025) • L-glutamine (Life Technologies Cat #25030-081) • L-glutamic acid, monosodium salt (Sigma Cat #G5889) • D-glucose (Sigma Cat #G-6151) • 10×HBSS buffer (pH 7.4) (950 ml Pyrogen-free water, 2.44 g/L MgCl2.6H20, 3.73 g/L KCl, 59.58 g/L Hepes, 58.44 g/L NaCl, 1.36 g/L KH2PO4, 1.91 g/L CaCl2.2H2O and pH to […] with HCl) • Cell Tracker Green fluorescent dye (Molecular Probes, Cat #2925). Prepare a 5NM solution in pre-warmed HBSS just prior to use. • Sterile 96-well plates precoated with poly-D-lysine (Corning Catalog #3665) • 96-well deep well mother plate, DyNA Block 1000 (VWR Catalog #40002-008) Neuronal Cells
The cells were seeded into 96-well plates at a density of 2000 per well and left to grow for 72 hours in a 33° C. incubator with 5% CO2 in air atmosphere. The passage number of the cells for each assay experiment were no later than p11 in order to minimize experimental variation.
All compounds were dissolved in DMEM-No Glu containing 1 mM glucose, 30 mM glutamate and 1× Pen/Strep. DMEM-No Glu with 1 mM glucose and 1× P/S was used as the negative control, DMEM-No Glucose with 1 mM glucose, […] glutamate was used as a positive control and 100 NM Glutathione was added to the positive control as a standard. All of the procedures for this involving the making and dilution of compounds were performed using aseptic conditions and with minimal light.
The plates were removed from the incubator and examined under the microscope for morphological appearance and density. Using an aseptic technique and an 8-channel aspirator the media was carefully removed from the cells and replaced with 200 μI of 1×HBSS. This was done as quickly as possible to prevent the cells drying out. The plates were then placed in the humidified 37° C. incubators of the Biomek 2000 Side Loader. Four plates were washed at a time so as to minimize the time that the cells were sitting in 1×HBSS prior to addition of the compound test solution. Experimental Setup
The Beckman Biomek workstations were used to load the compounds and controls from the mother plates onto the cell plates that were prewashed with HBSS under sterile conditions. The plates were incubated in the upper HTS incubator at 37° C. in 5% CO2 for exactly 16 hrs. The following day, using the Beckman Biomek workstations, the plates were removed from the incubator. Using Cell Tracker Addition, the compounds were removed from the plates, washed once with […] of pre-warmed 1×HBSS and then 100 μL of 5 μM Cell Tracker Green was added to each well. The plates were incubated at 37° C. for 30 min to allow the dye to enter the cell and be cleaved by the esterases. […]

SMILES	IC50 [1] [nM]	IC50 [2] [nM]	EC50 [3] [nM]	EC50 [4] [nM]
Cc1cc(C2(C)CCc3c(C)c(O)c(C)c(C)c3O2)c(C)s1 (stereo not shown) [2-(2,5-Dimethyl-thiophen-3-yl)-2,5,7,8-tetramethyl-chroman-6-ol]	< 1000	< 1000	< 1000	–
Cc1c(C)c2c(c(-c3cccnc3)c1O)CCC(C)(C)O2 [2,2,7,8-Tetramethyl-5-pyridin-3-yl-chroman-6-ol]	–	–	< 1000	< 5000
Cc1c(C)c2c(c(-c3ccc(C(=O)O)cc3)c1O)CCC(C)(C)O2 [4-(6-Hydroxy-2,2,7,8-tetramethyl-chroman-5-yl)-benzoic acid]	–	–	< 1000	< 5000
Cc1cc(C2(C)CCc3cc(O)c(C)c(C)c3O2)c(C)s1 (stereo not shown) [2-(2,5-Dimethyl-thiophen-3-yl)-2,7,8-trimethyl-chroman-6-ol]	< 1000	–	< 1000	–
Cc1c(C)c2c(c(-c3ccco3)c1O)CCC(C)(C)O2 [5-Furan-2-yl-2,2,7,8-tetramethyl-chroman-6-ol]	< 1000	< 1000	< 1000	–
Cc1c(C)c2c(c(-c3cccc([N+](=O)[O-])c3)c1O)CCC(C)(C)O2 [2,2,7,8-Tetramethyl-5-(3-nitro-phenyl)-chroman-6-ol]	–	–	< 1000	–
Cc1c(C)c2c(c(C)c1O)CCC(C)(c1cccs1)O2 (stereo not shown) [2,5,7,8-Tetramethyl-2-thiophen-2-yl-chroman-6-ol]	< 1000	< 1000	< 1000	–
